Experimental data reported in patent publication US9938269B2, “Inhibitor compounds of phosphodiesterase type 10A” (ABBVIE INC., priority 2011, dated 2018).
Structures can show the parent of a compound that is named as a salt.

biological target: T1, PDE10A (human) (Homo sapiens, UniProt Q9Y233); experiment: Measurement of PDE activity (HTRF cAMP kit), human PDE10A; format: biochemical; conditions: PDE enzymatic reaction, substrate 20 nM for PDE10, 60 minutes at 29 C
T1 construct: purchased BPS Bioscience
T1 sequence (Q9Y233 whole entry): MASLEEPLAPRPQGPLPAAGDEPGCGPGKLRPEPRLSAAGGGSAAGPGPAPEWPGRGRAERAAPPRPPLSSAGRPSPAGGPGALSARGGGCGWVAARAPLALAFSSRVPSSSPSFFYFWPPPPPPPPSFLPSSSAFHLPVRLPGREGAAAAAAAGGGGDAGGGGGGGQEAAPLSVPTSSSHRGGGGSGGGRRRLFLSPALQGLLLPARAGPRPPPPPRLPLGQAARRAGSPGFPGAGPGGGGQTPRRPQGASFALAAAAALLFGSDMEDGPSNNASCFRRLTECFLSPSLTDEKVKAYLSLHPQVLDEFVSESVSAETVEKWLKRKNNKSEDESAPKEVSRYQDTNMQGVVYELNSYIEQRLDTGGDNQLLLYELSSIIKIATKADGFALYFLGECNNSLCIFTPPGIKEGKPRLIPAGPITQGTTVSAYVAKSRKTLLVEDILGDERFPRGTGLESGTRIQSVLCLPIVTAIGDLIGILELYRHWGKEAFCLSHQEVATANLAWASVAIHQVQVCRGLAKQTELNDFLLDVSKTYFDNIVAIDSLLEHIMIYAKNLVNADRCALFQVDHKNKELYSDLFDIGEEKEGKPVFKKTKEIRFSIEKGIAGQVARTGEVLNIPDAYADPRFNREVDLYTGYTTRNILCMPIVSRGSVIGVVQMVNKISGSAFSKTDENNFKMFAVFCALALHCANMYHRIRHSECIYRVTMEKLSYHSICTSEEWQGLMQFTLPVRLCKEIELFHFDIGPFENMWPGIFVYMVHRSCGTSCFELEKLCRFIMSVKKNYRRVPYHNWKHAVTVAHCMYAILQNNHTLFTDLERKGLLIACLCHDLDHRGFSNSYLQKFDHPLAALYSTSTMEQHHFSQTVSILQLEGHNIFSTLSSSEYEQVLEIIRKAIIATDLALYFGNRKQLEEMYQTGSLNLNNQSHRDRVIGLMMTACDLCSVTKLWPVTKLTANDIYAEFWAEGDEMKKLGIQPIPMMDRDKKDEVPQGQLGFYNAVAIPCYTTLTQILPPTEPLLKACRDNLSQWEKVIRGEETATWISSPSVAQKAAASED
Experimental: The recombinant PDE proteins are used in in vitro enzymatic reaction for measurement of PDE activity. These recombinant proteins, including PDE10A (human, rat and mouse PDE10) and isoforms of PDEs 1, 3, 4, and 5, were purchased from commercial vendor BPS Bioscience. The enzymatic activity of PDEs was determined by cAMP measurement kit from CisBio (IBA) using HTRF technology.
The PDE enzymatic reaction was carried out in assay buffer (20 mM Tris-HCl pH7.5, 10 mM MgCl2, 0.1% bovine serum albumin) containing enzyme and substrate. The PDE enzymes concentration ranged from 10 pM-250 pM, depending on each enzyme's specific activity. The substrate cyclic nucleotide (cAMP or cGMP) concentration used in the assay was 20 nM for PDE10, and 100 nM for other PDEs. The inhibitory effect of compound was determined by incubating various concentration of inhibitor in the enzymatic assay. Typically, compound was serial diluted in DMSO then further diluted in assay buffer. Next, the compound at varying concentration was mixed with PDE enzyme. The reaction was initiated by addition of cyclic nucleotide substrate, and incubated for 60 minutes at 29 C. The reaction was stopped by addition of lysis buffer from assay kit. The cAMP-d2 and anti-cAMP cryptate in the lysis buffer detected the level of cAMP left from the PDE hydrolysis reaction. The PDE activity is reversely correlated with the amount of cAMP left in the reaction and can be converted to the percent activity of an uninhibited control (100%). Thus, IC50 value of inhibitor can be obtained by plotting inhibitor concentration against PDE activity at that concentration.

IC50 [nM]	Compound
< 100	COCCCOc1ccc(-c2ccncc2)c2c1CN(CCc1ccc3ccccc3n1)C2=O [Example 204, 4-(3-Methoxy-propoxy)-7-pyridin-4-yl-2-(2-quinolin-2-yl-ethyl)-2,3-dihydro-isoindol-1-one]
200 to 500	O=C1c2c(cccc2-c2ccc(F)c(F)c2)CN1CCc1ccc2ccccc2n1 [Example 33, 7-(3,4-Difluoro-phenyl)-2-(2-quinolin-2-yl-ethyl)-2,3-dihydro-isoindol-1-one]
< 100	CN(C)CCn1c(CCN2Cc3cccc(-c4ccncc4)c3C2=O)nc2ccccc21 [Example 293, 2-{2-[1-(2-Dimethylamino-ethyl)-1H-benzoimidazol-2-yl]-ethyl}-7-pyridin-4-yl-2,3-dihydro-isoindol-1-one trifluoroacetate]
200 to 500	O=C1c2c(cccc2NCc2ccncc2)CN1CCc1ccc2ccccc2n1 [Example 125, 7-[(Pyridin-4-ylmethyl)-amino]-2-(2-quinolin-2-yl-ethyl)-2,3-dihydro-isoindol-1-one]
100 to 200	Cc1ccsc1-c1ccnc2c1C(=O)N(CCc1ccc3ccccc3n1)C2 [Example 336, 4-(3-Methyl-thiophen-2-yl)-6-(2-quinolin-2-yl-ethyl)-6,7-dihydro-pyrrolo[3,4-b]pyridin-5-one]
200 to 500	O=C1c2c(cccc2-c2ccc3occc3c2)CN1CCc1ccc2ccccc2n1 [Example 72, 7-Benzofuran-5-yl-2-(2-quinolin-2-yl-ethyl)-2,3-dihydro-isoindol-1-one]
< 100	Cc1cnccc1-c1ccnc2c1C(=O)N(CCc1ccc3ccccc3n1)C2 [Example 322, 4-(3-Methyl-pyridin-4-yl)-6-(2-quinolin-2-yl-ethyl)-6,7-dihydro-pyrrolo[3,4-b]pyridin-5-one]
200 to 500	O=C1c2cccc(-c3ccnc(C4CC4)c3)c2CN1CCc1ccc2ccccc2n1 [Example 354, 4-(2-Cyclopropyl-pyridin-4-yl)-2-(2-quinolin-2-yl-ethyl)-2,3-dihydro-isoindol-1-one]
< 100	O=C1c2c(-c3ccoc3)ccnc2CN1CCc1ccc2ccccc2n1 [Example 331, 4-Furan-3-yl-6-(2-quinolin-2-yl-ethyl)-6,7-dihydro-pyrrolo[3,4-b]pyridin-5-one]
< 100	O=c1c2c(-c3ccncc3)cccc2on1CCc1ccc2ccccc2n1 [Example 18, 4-Pyridin-4-yl-2-(2-quinolin-2-yl-ethyl)-benzo[d]isoxazol-3-one]
< 100	N#Cc1ccc(-c2cccc3c2C(=O)N(CCc2ccc4ccccc4n2)C3)s1 [Example 281, 5-[3-oxo-2-(2-quinolin-2-yl-ethyl)-2,3-dihydro-1H-isoindol-4-yl]-thiophene-2-carbonitrile]
< 100	O=C1c2c(cccc2-c2ccc3ncccc3c2)CN1CCc1ccc2ccccc2n1 [Example 75, 7-Quinolin-6-yl-2-(2-quinolin-2-yl-ethyl)-2,3-dihydro-isoindol-1-one]
200 to 500	O=C1c2c(cccc2N2CCCC3NCCCC32)CN1CCc1ccc2ccccc2n1 (stereo not shown) [Example 279, 7-(Octahydro-[1,5]naphthyridin-1-yl)-2-(2-quinolin-2-yl-ethyl)-2,3-dihydro-isoindol-1-one trifluoroacetate]
< 100	CSCOc1ccc(-c2ccncc2)c2c1CN(CCc1ccc3ccccc3n1)C2=O [Example 267, 4-Methylsulfanylmethoxy-7-pyridin-4-yl-2-(2-quinolin-2-yl-ethyl)-2,3-dihydro-isoindol-1-one]
< 100	Cn1c(CCN2Cc3cccc(-c4ccncc4)c3C2=O)nc2cc(F)ccc21 [Example 221, 2-[2-(5-Fluoro-1-methyl-1H-benzoimidazol-2-yl)-ethyl]-7-pyridin-4-yl-2,3-dihydro-isoindol-1-one trifluoroacetate]
< 100	O=C1c2c(cccc2-c2ccncc2)CN1CC(F)(F)c1ccc2ccccc2n1 [Example 13, 2-(2,2-Difluoro-2-quinolin-2-yl-ethyl)-7-pyridin-4-yl-2,3-dihydro-isoindol-1-one]

The next lines start with the compound.

Compound	IC50 [nM]
CCn1cc(-c2cccc3c2CN(CCc2ccc4ccccc4n2)C3=O)cn1 [Example 347, 4-(1-Ethyl-1H-pyrazol-4-yl)-2-(2-quinolin-2-yl-ethyl)-2,3-dihydro-isoindol-1-one]	100 to 200
CN(C)c1cccc(-c2cccc3c2C(=O)N(CCc2ccc4ccccc4n2)C3)c1 [Example 43, 7-(3-Dimethylamino-phenyl)-2-(2-quinolin-2-yl-ethyl)-2,3-dihydro-isoindol-1-one]	200 to 500
CN(C)c1ncc(-c2cccc3c2CN(CCc2ccc4ccccc4n2)C3=O)cn1 [Example 341, 4-(2-Dimethylamino-pyrimidin-5-yl)-2-(2-quinolin-2-yl-ethyl)-2,3-dihydro-isoindol-1-one]	100 to 200
O=C1c2c(cccc2-c2cc(F)ccc2F)CN1CCc1ccc2ccccc2n1 [Example 51, 7-(2,5-Difluoro-phenyl)-2-(2-quinolin-2-yl-ethyl)-2,3-dihydro-isoindol-1-one]	200 to 500
COc1ccc(-c2ccc(F)cc2)c2c1CN(CCc1ccc3ccccc3n1)C2=O [Example 187, 7-(4-Fluoro-phenyl)-4-methoxy-2-(2-quinolin-2-yl-ethyl)-2,3-dihydro-isoindol-1-one]	< 100
O=C1c2c(cccc2-c2ccc(F)cn2)CN1CCc1ccc2ccccc2n1 [Example 88, 7-(5-Fluoro-pyridin-2-yl)-2-(2-quinolin-2-yl-ethyl)-2,3-dihydro-isoindol-1-one]	200 to 500
Cn1c(CCN2Cc3cccc(N4CCOCC4)c3C2=O)nc2c(F)cccc21 [Example 307, 2-[2-(4-Fluoro-1-methyl-1H-benzoimidazol-2-yl)-ethyl]-7-morpholin-4-yl-2,3-dihydro-isoindol-1-one trifluoroacetate]	200 to 500
O=C1c2c(C3CCOC3)ccnc2CN1CCc1ccc2ccccc2n1 (stereo not shown) [Example 309, 6-(2-Quinolin-2-yl-ethyl)-4-(tetrahydro-furan-3-yl)-6,7-dihydro-pyrrolo[3,4-b]pyridin-5-one]	< 100
Cc1cscc1-c1cccc2c1C(=O)N(CCc1ccc3ccccc3n1)C2 [Example 73, 7-(4-Methyl-thiophen-3-yl)-2-(2-quinolin-2-yl-ethyl)-2,3-dihydro-isoindol-1-one]	200 to 500
Cc1cnc(-c2cccc3c2CN(CCc2ccc4ccccc4n2)C3=O)cn1 [Example 350, 4-(5-Methyl-pyrazin-2-yl)-2-(2-quinolin-2-yl-ethyl)-2,3-dihydro-isoindol-1-one]	< 100
O=C1c2c(cccc2-c2ccccc2F)CN1CCc1ccc2ccccc2n1 [Example 29, 7-(2-Fluoro-phenyl)-2-(2-quinolin-2-yl-ethyl)-2,3-dihydro-isoindol-1-one]	100 to 200
Cc1cc(-c2cccc3c2CN(CCc2ccc4ccccc4n2)C3=O)n(C)n1 [Example 348, 4-(2,5-Dimethyl-2H-pyrazol-3-yl)-2-(2-quinolin-2-yl-ethyl)-2,3-dihydro-isoindol-1-one]	100 to 200
Cc1ccc2c(c1)nc(CCN1Cc3cccc(-c4ccncc4)c3C1=O)n2C [Example 301, 2-[2-(1,5-Dimethyl-1H-benzoimidazol-2-yl)-ethyl]-7-pyridin-4-yl-2,3-dihydro-isoindol-1-one trifluoroacetate]	< 100
COc1cc(-c2cccc3c2CN(CCc2ccc4ccccc4n2)C3=O)ccn1 [Example 344, 4-(2-Methoxy-pyridin-4-yl)-2-(2-quinolin-2-yl-ethyl)-2,3-dihydro-isoindol-1-one]	100 to 200
O=C1c2c(cccc2-c2cc[nH]n2)CN1CCc1ccc2ccccc2n1 [Example 53, 7-(1H-Pyrazol-3-yl)-2-(2-quinolin-2-yl-ethyl)-2,3-dihydro-isoindol-1-one]	100 to 200
O=C1c2c(cccc2-c2ccc(F)cc2)CN1CCc1ccc2ccccc2n1 [Example 22, 7-(4-Fluoro-phenyl)-2-(2-quinolin-2-yl-ethyl)-2,3-dihydro-isoindol-1-one]	< 100
CCOC(=O)C1CCN(c2ccnc3c2C(=O)N(CCc2ccc4ccccc4n2)C3)CC1 [Example 319, 1-[5-Oxo-6-(2-quinolin-2-yl-ethyl)-6,7-dihydro-5H-pyrrolo[3,4-b]pyridin-4-yl]-piperidine-4-carboxylic acid ethyl ester]	200 to 500
CN1CCN(S(=O)(=O)c2cccc3c2CN(c2cccc4c2CN(CCc2ccc5ccccc5n2)C4=O)CC3)CC1 [Example 321, 4-[8-(4-Methyl-piperazine-1-sulfonyl)-3,4-dihydro-1H-isoquinolin-2-yl]-2-(2-quinolin-2-yl-ethyl)-2,3-dihydro-isoindol-1-one]	200 to 500
O=C1c2c(N3CCC(F)(F)CC3)ccnc2CN1CCc1ccc2ccccc2n1 [Example 258, 4-(4,4-Difluoro-piperidin-1-yl)-6-(2-quinolin-2-yl-ethyl)-6,7-dihydro-pyrrolo[3,4-b]pyridin-5-one]	< 100
O=C1c2c(N3CCC(C(F)F)C3)ccnc2CN1CCc1ccc2ccccc2n1 (stereo not shown) [compound 434]	< 100
CCn1cc(-c2ccnc3c2C(=O)N(CCc2ccc4ccccc4n2)C3)cn1 [Example 333, 4-(1-Ethyl-1H-pyrazol-4-yl)-6-(2-quinolin-2-yl-ethyl)-6,7-dihydro-pyrrolo[3,4-b]pyridin-5-one]	100 to 200
